Data from PubChem BioAssay AID1918993 (Molecular Pharmacology Branch, DTP, NCI, 2023).
“And” between values parts separate entries of the source, which are not always exact repeats. Equal values may be shown once.

Tested on: 233499-124-R-J3-PDC complex spheroid growth
Experiment: Anticancer human tumor 233499-124-R-J3-PDC patient-derived colon adenocarcinoma cell line growth inhibition [AhR]
Details: for viability, T/C: stronger effect = lower value
Method in brief: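 Agents were dosed in half-log steps down from roughly clinical Cmax, or from 10 microM where Cmax was unknown, alone and with AhR antagonists. Read-out: percent test/control growth of tumor spheroids containing HUVEC and MSC stromal cells.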

[1] = curve of first compound, second compound 0.1 µM
[2] = curve of first compound, second compound 0.316 µM
[3] = curve of first compound, second compound 1 µM
[4] = curve of first compound, second compound 3.16 µM
[5] = curve of first compound, second compound 10 µM
[6] = second compound 0.1 µM, first compound 0.0316 µM
[7] = second compound 0.1 µM, first compound 0.1 µM
[8] = second compound 0.316 µM, first compound 0.0316 µM
[9] = second compound 0.316 µM, first compound 0.1 µM
[10] = second compound 1 µM, first compound 0.0316 µM
[11] = second compound 1 µM, first compound 0.1 µM
[12] = second compound 3.16 µM, first compound 0.0316 µM
[13] = second compound 3.16 µM, first compound 0.1 µM
[14] = second compound 10 µM, first compound 0.0316 µM
[15] = second compound 10 µM, first compound 0.1 µM
[16] = second compound 0.1 µM, first compound 0.316 µM
[17] = second compound 0.1 µM, first compound 1 µM
[18] = second compound 0.1 µM, first compound 3.16 µM
[19] = second compound 0.1 µM, first compound 10 µM
[20] = second compound 0.316 µM, first compound 0.316 µM
[21] = second compound 0.316 µM, first compound 1 µM
[22] = second compound 0.316 µM, first compound 3.16 µM
[23] = second compound 0.316 µM, first compound 10 µM
[24] = second compound 1 µM, first compound 0.316 µM
[25] = second compound 1 µM, first compound 1 µM
[26] = second compound 1 µM, first compound 3.16 µM
[27] = second compound 1 µM, first compound 10 µM
[28] = second compound 3.16 µM, first compound 0.316 µM
[29] = second compound 3.16 µM, first compound 1 µM
[30] = second compound 3.16 µM, first compound 3.16 µM
[31] = second compound 3.16 µM, first compound 10 µM
[32] = second compound 10 µM, first compound 0.316 µM
[33] = second compound 10 µM, first compound 1 µM
[34] = second compound 10 µM, first compound 3.16 µM
[35] = second compound 10 µM, first compound 10 µM
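Further: spheroids exposed to agents for seven days before reading.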

| Compound | IC50 [1] [µM] | IC50 [2] [µM] | IC50 [3] [µM] | IC50 [4] [µM] | IC50 [5] [µM] | viability, T/C [6] [%] | viability, T/C [7] [%] | viability, T/C [8] [%] | viability, T/C [9] [%] | viability, T/C [10] [%] | viability, T/C [11] [%] | viability, T/C [12] [%] | viability, T/C [13] [%] | viability, T/C [14] [%] | viability, T/C [15] [%] | viability, T/C [16] [%] | viability, T/C [17] [%] | viability, T/C [18] [%] | viability, T/C [19] [%] | viability, T/C [20] [%] | further results |
| --- | --- | --- | --- | --- | --- | --- | --- | --- | --- | --- | --- | --- | --- | --- | --- | --- | --- | --- | --- | --- | --- |
| CC[C@@]1(O)C(=O)OCc2c1cc1n(c2=O)Cc2cc3c(CN(C)C)c(O)ccc3nc2-1 | – | – | – | – | – | – | – | – | – | – | – | – | – | – | – | – | – | – | – | – | viability, T/C (compound 0.000316 µM): 104% (2×) and 97.5%; viability, T/C (compound 0.001 µM): 107% and 86.7% and 95.5%; viability, T/C (compound 0.00316 µM): 94.7% and 92% and 87.1%; viability, T/C (compound 0.01 µM): 95% and 99.2% and 93.8%; viability, T/C (compound 0.0316 µM): 86.8% and 86.6% and 108%; viability, T/C (compound 0.1 µM): 92.3% and 83.2% and 89.9%; IC50 (curve of compound): > 0.1 µM |
| Nc1ccn(C2OC(CO)C(O)C2(F)F)c(=O)n1 (stereo not drawn) | – | – | – | – | – | – | – | – | – | – | – | – | – | – | – | – | – | – | – | – | viability, T/C (compound 0.0316 µM): 108% and 76.6% and 99.2%; viability, T/C (compound 0.1 µM): 91.1% and 89.1% and 80.1%; viability, T/C (compound 0.316 µM): 75.9% and 48.8% and 61.6%; viability, T/C (compound 1 µM): 51.4% and 43.7% and 46.9%; viability, T/C (compound 3.16 µM): 45.5% and 50.5% and 62.4%; viability, T/C (compound 10 µM): 54.1% and 54.5% and 59.6% |
| COc1cc(C2c3cc4c(cc3C(OC3OC5COC(C)OC5C(O)C3O)C3COC(=O)C23)OCO4)cc(OC)c1O (stereo not drawn) + Cc1ccccc1N=Nc1ccc(NC(=O)c2ccnn2C)c(C)c1 | > 10 | > 10 | > 10 | > 10 | > 10 | 104 | 101 | 99.7 | 84.7 | 95.9 | 105 | 93.4 | 97.5 | 106 | 102 | 96 | 101 | 95.7 | 89.7 | 107 | viability, T/C [21]: 116%; viability, T/C [22]: 114%; viability, T/C [23]: 105%; viability, T/C [24]: 98.7%; viability, T/C [25]: 88.9%; viability, T/C [26]: 99.1%; viability, T/C [27]: 109%; viability, T/C [28]: 93.7%; viability, T/C [29]: 108%; viability, T/C [30]: 107%; viability, T/C [31]: 114%; viability, T/C [32]: 107%; viability, T/C [33]: 128%; viability, T/C [34]: 106%; viability, T/C [35]: 99.4% |
| COc1cc(C2c3cc4c(cc3C(OC3OC5COC(C)OC5C(O)C3O)C3COC(=O)C23)OCO4)cc(OC)c1O (stereo not drawn) + Cc1cncc(-c2nc(NCCc3c[nH]c4ccccc34)c3ncn(C(C)C)c3n2)c1 | > 10 | > 10 | > 10 | > 10 | < 0.0316 | 92.6 | 101 | 91.7 | 89.8 | 77.5 | 84.4 | 78.9 | 79.5 | 9.81 | 11.9 | 109 | 95.4 | 98.6 | 92.9 | 86 | viability, T/C [21]: 81.6%; viability, T/C [22]: 83.9%; viability, T/C [23]: 88.5%; viability, T/C [24]: 77.3%; viability, T/C [25]: 88%; viability, T/C [26]: 79.8%; viability, T/C [27]: 69.9%; viability, T/C [28]: 77.4%; viability, T/C [29]: 73%; viability, T/C [30]: 74.1%; viability, T/C [31]: 55.9%; viability, T/C [32]: 30.9%; viability, T/C [33]: 30.1%; viability, T/C [34]: 22.2%; viability, T/C [35]: 9.08% |
| O=C(C=Cc1cccc(S(=O)(=O)Nc2ccccc2)c1)NO + Cc1ccccc1N=Nc1ccc(NC(=O)c2ccnn2C)c(C)c1 | 6.62 | 5.96 | 6.36 | 5.56 | 4.22 | 98.3 | 97.5 | 95.2 | 103 | 110 | 102 | 102 | 102 | 94.4 | 101 | 110 | 139 | 127 | 14 | 127 | viability, T/C [21]: 126%; viability, T/C [22]: 104%; viability, T/C [23]: 5.9%; viability, T/C [24]: 116%; viability, T/C [25]: 126%; viability, T/C [26]: 111%; viability, T/C [27]: 10.7%; viability, T/C [28]: 105%; viability, T/C [29]: 129%; viability, T/C [30]: 89.6%; viability, T/C [31]: 9.1%; viability, T/C [32]: 98.5%; viability, T/C [33]: 94.1%; viability, T/C [34]: 65.4%; viability, T/C [35]: 3.82% |

The next lines start with results.

| IC50 [1] [µM] | IC50 [2] [µM] | IC50 [3] [µM] | IC50 [4] [µM] | IC50 [5] [µM] | Compound | viability, T/C [6] [%] | viability, T/C [7] [%] | viability, T/C [8] [%] | viability, T/C [9] [%] | viability, T/C [10] [%] | viability, T/C [11] [%] | viability, T/C [12] [%] | viability, T/C [13] [%] | viability, T/C [14] [%] | viability, T/C [15] [%] | viability, T/C [16] [%] | viability, T/C [17] [%] | viability, T/C [18] [%] | viability, T/C [19] [%] | viability, T/C [20] [%] | further results |
| --- | --- | --- | --- | --- | --- | --- | --- | --- | --- | --- | --- | --- | --- | --- | --- | --- | --- | --- | --- | --- | --- |
| > 0.1 | > 0.1 | > 0.1 | > 0.1 | > 0.1 | Cn1ncnc1C1c2n[nH]c(=O)c3cc(F)cc(c23)NC1c1ccc(F)cc1 (stereo not drawn) + Cc1ccccc1N=Nc1ccc(NC(=O)c2ccnn2C)c(C)c1 | 99.2 | 106 | 95.8 | 94.7 | 99 | 109 | 94.9 | 99.2 | 89.8 | 98.9 | – | – | – | – | – | viability, T/C (second compound 0.1 µM, first compound 0.000316 µM): 104%; viability, T/C (second compound 0.1 µM, first compound 0.001 µM): 107%; viability, T/C (second compound 0.1 µM, first compound 0.00316 µM): 110%; viability, T/C (second compound 0.1 µM, first compound 0.01 µM): 110%; viability, T/C (second compound 0.316 µM, first compound 0.000316 µM): 93%; viability, T/C (second compound 0.316 µM, first compound 0.001 µM): 105%; viability, T/C (second compound 0.316 µM, first compound 0.00316 µM): 106%; viability, T/C (second compound 0.316 µM, first compound 0.01 µM): 101%; viability, T/C (second compound 1 µM, first compound 0.000316 µM): 108%; viability, T/C (second compound 1 µM, first compound 0.001 µM): 113%; viability, T/C (second compound 1 µM, first compound 0.00316 µM): 103%; viability, T/C (second compound 1 µM, first compound 0.01 µM): 101%; viability, T/C (second compound 3.16 µM, first compound 0.000316 µM): 95.6%; viability, T/C (second compound 3.16 µM, first compound 0.001 µM): 102%; viability, T/C (second compound 3.16 µM, first compound 0.00316 µM): 90.3%; viability, T/C (second compound 3.16 µM, first compound 0.01 µM): 97.2%; viability, T/C (second compound 10 µM, first compound 0.000316 µM): 109%; viability, T/C (second compound 10 µM, first compound 0.001 µM): 110%; viability, T/C (second compound 10 µM, first compound 0.00316 µM): 109%; viability, T/C (second compound 10 µM, first compound 0.01 µM): 98.7% |
| > 10 | > 10 | > 10 | > 10 | > 10 | CC(C)c1c(-c2ccccc2)nc2c(C#N)c[nH]n2c1=O + Cc1ccccc1N=Nc1ccc(NC(=O)c2ccnn2C)c(C)c1 | 110 | 98.9 | 100 | 108 | 110 | 110 | 102 | 99.5 | 103 | 102 | 101 | 112 | 95.2 | 105 | 92.3 | viability, T/C [21]: 104%; viability, T/C [22]: 118%; viability, T/C [23]: 107%; viability, T/C [24]: 98.7%; viability, T/C [25]: 102%; viability, T/C [26]: 106%; viability, T/C [27]: 106%; viability, T/C [28]: 103%; viability, T/C [29]: 110%; viability, T/C [30]: 108%; viability, T/C [31]: 105%; viability, T/C [32]: 107%; viability, T/C [33]: 101%; viability, T/C [34]: 89%; viability, T/C [35]: 85.3% |
| > 10 | > 10 | > 10 | > 10 | > 10 | CC1COCCN1c1cc(C2(S(C)(=N)=O)CC2)nc(-c2ccnc3[nH]ccc23)n1 (stereo not drawn) + CC(CO)NC(=O)c1cc(-c2ccc(Cl)cc2)nn(-c2cnn(C)c2)c1=O | 101 | 97.2 | 88.2 | 89.1 | 79.7 | 96.2 | 98.8 | 95.8 | 72.5 | 79 | 94.2 | 91 | 75.8 | 74.1 | 97.3 | viability, T/C [21]: 83%; viability, T/C [22]: 87.4%; viability, T/C [23]: 72.1%; viability, T/C [24]: 90.3%; viability, T/C [25]: 92.3%; viability, T/C [26]: 86.9%; viability, T/C [27]: 69%; viability, T/C [28]: 91.3%; viability, T/C [29]: 85.9%; viability, T/C [30]: 82.5%; viability, T/C [31]: 68.3%; viability, T/C [32]: 82.2%; viability, T/C [33]: 79.5%; viability, T/C [34]: 61.8%; viability, T/C [35]: 56.6% |
